Data published in ChEMBL document CHEMBL4184141, “Investigating the Antibacterial Activity of Biphenylthiazoles against Methicillin- and Vancomycin-Resistant Staphylococcus aureus (MRSA and VRSA)” (J Med Chem, 2017).
Converted amounts (≈) assume the structure as drawn.

Tests used:
Staphylococcus aureus [1] = assay: Antibacterial activity against methicillin-resistant Staphylococcus aureus 2658 RCMB up to 20 hrs by broth microdilution assay; assay type: functional
Staphylococcus aureus [2] = assay: Antibacterial activity against Staphylococcus aureus RN4220 up to 20 hrs by broth microdilution assay; assay type: functional; details: RN4220, 20 h
Staphylococcus aureus [3] = assay: Antibacterial activity against methicillin-resistant Staphylococcus aureus NRS119 up to 20 hrs by broth microdilution assay; assay type: functional; details: NRS119, 20 h
Staphylococcus aureus [4] = assay: Antibacterial activity against methicillin-resistant Staphylococcus aureus USA400 NRS123 up to 20 hrs by broth microdilution assay; assay type: functional; details: USA400 NRS123, 20 h
Staphylococcus aureus [5] = assay: Antibacterial activity against vancomycin-resistant Staphylococcus aureus VRS10 up to 20 hrs by broth microdilution assay; assay type: functional; details: VRS10, 20 h
Staphylococcus aureus [6] = assay: Antibacterial activity against vancomycin-resistant Staphylococcus aureus VRS11a up to 20 hrs by broth microdilution assay; assay type: functional
Staphylococcus aureus [7] = assay: Antibacterial activity against vancomycin-resistant Staphylococcus aureus VRS12 up to 20 hrs by broth microdilution assay; assay type: functional; details: VRS12, 20 h
Enterococcus faecium = assay: Antibacterial activity against vancomycin-resistant Enterococcus faecium ATCC 700221 up to 20 hrs by broth microdilution assay; assay type: functional; details: ATCC 700221, 20 h
Pseudomonas aeruginosa = assay: Antibacterial activity against Pseudomonas aeruginosa ATCC 15442 up to 20 hrs by broth microdilution assay; assay type: functional; details: ATCC 15442, 20 h
Staphylococcus aureus [8] = assay: Bactericidal activity against Staphylococcus aureus RN4220 up to 18 hrs by broth microdilution assay; assay type: functional; details: RN4220, 18 h, read-out: MBC99.9
Staphylococcus aureus [9] = assay: Bactericidal activity against methicillin-resistant Staphylococcus aureus NRS119 up to 18 hrs by broth microdilution assay; assay type: functional; details: NRS119, 18 h, read-out: MBC99.9
Staphylococcus aureus [10] = assay: Bactericidal activity against methicillin-resistant Staphylococcus aureus USA400 NRS123 up to 18 hrs by broth microdilution assay; assay type: functional; details: USA400 NRS123, 18 h, read-out: MBC99.9
Staphylococcus aureus [11] = assay: Bactericidal activity against vancomycin-resistant Staphylococcus aureus VRS10 up to 18 hrs by broth microdilution assay; assay type: functional; details: VRS10, 18 h, read-out: MBC99.9
Staphylococcus aureus [12] = assay: Bactericidal activity against vancomycin-resistant Staphylococcus aureus VRS11a up to 18 hrs by broth microdilution assay; assay type: functional; details: read-out: MBC99.9
Staphylococcus aureus [13] = assay: Bactericidal activity against vancomycin-resistant Staphylococcus aureus VRS12 up to 18 hrs by broth microdilution assay; assay type: functional; details: VRS12, 18 h, read-out: MBC99.9
Staphylococcus aureus [14] = assay: Potentiation of vancomycin-induced antibacterial activity against vancomycin-resistant Staphylococcus aureus VRS10 assessed as fold reduction in vancomycin MIC at 0.5 times MIC after 20 to 22 hrs; assay type: functional
Staphylococcus aureus [15] = assay: Antibacterial activity against methicillin-resistant Staphylococcus aureus USA300 infected in Caenorhabditis elegans AU37 harboring (sek-1(km4);glp-4(bn2)I) mutant assessed as reduction in bacterial burden at 20 ug/ml after 18 hrs by microscopic analysis relative to control; assay type: functional; set-up: scale not given: the % may be the effect or the level left
HRT-18 cell line = assay: Cytotoxicity against human HRT18 cells up to 64 microg/ml after 6 hrs by MTS assay; assay type: cell-based; details: hrt-18, 6 h
Staphylococcus aureus [16] = assay: Synergistic antibacterial activity against vancomycin-resistant Staphylococcus aureus VRS10 after 20 hrs in presence of vancomycin by checkerboard assay; assay type: functional; details: VRS10, 20 h
Staphylococcus aureus [17] = assay: Potentiation of vancomycin-induced antibacterial activity against vancomycin-resistant Staphylococcus aureus VRS10 assessed as vancomycin MIC after 20 hrs by checkerboard assay; assay type: functional; details: VRS10, 20 h
Staphylococcus aureus [18] = assay: Potentiation of vancomycin-induced antibacterial activity against vancomycin-resistant Staphylococcus aureus VRS10 assessed as reduction in vancomycin MIC after 20 hrs by checkerboard assay; assay type: functional
[19] = Selectivity index, ratio of cytotoxic concentration for human HRT18 cells to MIC for methicillin-resistant Staphylococcus aureus; assay type: toxicity; details: read-out: Selectivity Index

Cc1nc(-c2ccc(-c3ccccc3)cc2)sc1-c1ccnc(NN2CCN(C)CC2)n1
MIC (Staphylococcus aureus [1]): 0.78 µg/mL (≈ 1.76 µM)
MIC (Staphylococcus aureus [2]): 4 µg/mL (≈ 9.04 µM)
MIC (Staphylococcus aureus [3]): 4 µg/mL (≈ 9.04 µM)
MIC (Staphylococcus aureus [4]): 4 µg/mL (≈ 9.04 µM)
MIC (Staphylococcus aureus [5]): 8 µg/mL (≈ 18.1 µM)
MIC (Staphylococcus aureus [6]): 8 µg/mL (≈ 18.1 µM)
MIC (Staphylococcus aureus [7]): 8 µg/mL (≈ 18.1 µM)
MIC (Enterococcus faecium): > 64 µg/mL
MIC (Pseudomonas aeruginosa): > 64 µg/mL
MBC (Staphylococcus aureus [8]): 8 µg/mL (≈ 18.1 µM)
MBC (Staphylococcus aureus [9]): 4 µg/mL (≈ 9.04 µM)
MBC (Staphylococcus aureus [10]): 4 µg/mL (≈ 9.04 µM)
MBC (Staphylococcus aureus [11]): 8 µg/mL (≈ 18.1 µM)
MBC (Staphylococcus aureus [12]): 8 µg/mL (≈ 18.1 µM)
MBC (Staphylococcus aureus [13]): 8 µg/mL (≈ 18.1 µM)
fold change (FC) (Staphylococcus aureus [14]): 128
Activity (Staphylococcus aureus [15]): 46%
Activity (HRT-18 cell line): Non-Toxic
MIC (Staphylococcus aureus [16]): 4 µg/mL
MIC (Staphylococcus aureus [17]): 4 to 8 µg/mL
fractional inhibitory concentration index (FICI) (Staphylococcus aureus [18]): 0.51 - 0.56
selectivity ratio [19]: 16
